From article PMC6957519, “NLRP6 self-assembles into a linear molecular platform following LPS binding and ATP stimulation” (Scientific Reports, 2020) come the findings set out here.

Where “and” joins values, the source holds several entries; their conditions need not be identical. Identical values can stand only once.

Data set [1] deals with T1, NLRP6 (Homo sapiens, UniProt P59044).
T1 construct: full-length 1-892; N-terminal His-MBP tag removed by HRV3C; E. coli BL21(DE3); monomer, dimerises with LPS
T1 sequence (P59044 1-892): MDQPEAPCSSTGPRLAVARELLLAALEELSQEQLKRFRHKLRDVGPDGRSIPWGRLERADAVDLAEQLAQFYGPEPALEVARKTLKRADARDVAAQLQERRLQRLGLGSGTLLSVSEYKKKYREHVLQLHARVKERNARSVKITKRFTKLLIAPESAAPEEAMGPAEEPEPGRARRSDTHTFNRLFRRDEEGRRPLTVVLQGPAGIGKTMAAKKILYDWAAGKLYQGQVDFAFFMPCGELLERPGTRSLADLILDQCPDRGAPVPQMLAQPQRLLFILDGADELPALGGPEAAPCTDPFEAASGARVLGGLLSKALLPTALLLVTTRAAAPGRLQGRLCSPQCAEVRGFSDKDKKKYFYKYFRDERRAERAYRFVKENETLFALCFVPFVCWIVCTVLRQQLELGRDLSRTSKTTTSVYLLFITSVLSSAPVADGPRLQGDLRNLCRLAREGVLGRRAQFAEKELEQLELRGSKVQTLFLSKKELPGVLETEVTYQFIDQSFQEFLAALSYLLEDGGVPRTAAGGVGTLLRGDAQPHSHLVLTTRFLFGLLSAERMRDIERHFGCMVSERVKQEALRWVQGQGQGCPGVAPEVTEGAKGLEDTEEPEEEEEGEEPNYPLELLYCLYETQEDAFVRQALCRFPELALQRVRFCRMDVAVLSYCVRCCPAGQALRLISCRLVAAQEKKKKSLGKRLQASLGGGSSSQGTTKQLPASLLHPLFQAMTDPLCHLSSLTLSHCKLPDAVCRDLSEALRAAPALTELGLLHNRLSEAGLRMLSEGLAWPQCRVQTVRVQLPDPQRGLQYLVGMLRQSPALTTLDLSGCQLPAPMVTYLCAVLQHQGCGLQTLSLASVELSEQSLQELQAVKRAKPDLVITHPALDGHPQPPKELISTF
As to the kind of experiment: nucleotide-induced oligomerization. It is filed as binding. The following applies: with LPS (LPS-bound dimer); putative NOD domain site.

In data set [2] the target is T1, NLRP6. As to the kind of experiment: gel filtration and EM, nucleotide-induced oligomerization. It is filed as binding. The following applies: with LPS (LPS-bound dimer); no shift of the monomer with ATP alone; putative NOD domain site. Background: In gel filtration, larger molecules generally elute earlier.
Data set [3] concerns the molecule itself. Put plainly: negative-stain electron microscopy; NLRP6 with LPS and ATP increased to 2 mM.
Data set [4] concerns the molecule itself. Put plainly: SEC; NLRP6 monomer incubated with LPS (Ra, 10 uM or 20 uM; NLRP6 to component 1:20), Superdex 200 10/300; similar peak shifts with LPS Rc, Rd, Re, Lipid A, FITC-LPS and Pam3CSK4.
Data set [5] deals with the molecule itself. As to the kind of experiment: negative-stain electron microscopy with 3D reconstruction; NLRP6 with LPS and 1 mM ATP (peak 3 of the gel filtration); particles classed by the number of shrinked links; tetramer map from 8783 particles.

Take `Nc1ncnc2c1ncn2[C@H]1C[C@H](O)[C@@H](COP(=O)(O)OP(=O)(O)OP(=O)(O)O)O1` [deoxy-ATP]: the nucleotide-induced oligomerization entry at NLRP6 [1] is “demonstrated by ATP, GTP, CTP, TTP, and deoxy-ATP (dATP) treatment”.
Turning to `Nc1ccn([C@@H]2O[C@H](COP(=O)(O)OP(=O)(O)OP(=O)(O)O)[C@@H](O)[C@H]2O)c(=O)n1` [CTP], the nucleotide-induced oligomerization result at NLRP6 [1] is “demonstrated by ATP, GTP, CTP, TTP, and deoxy-ATP (dATP) treatment”.
Still for that read-out and setting: the entry for `Nc1nc2c(ncn2[C@@H]2O[C@H](COP(=O)(O)OP(=O)(O)OP(=O)(O)O)[C@@H](O)[C@H]2O)c(=O)[nH]1` [GTP] is “demonstrated by ATP, GTP, CTP, TTP, and deoxy-ATP (dATP) treatment”; for `Cc1cn([C@H]2C[C@H](O)[C@@H](COP(=O)(O)OP(=O)(O)OP(=O)(O)O)O2)c(=O)[nH]c1=O` [TTP] it is “demonstrated by ATP, GTP, CTP, TTP, and deoxy-ATP (dATP) treatment”.
With `Nc1ncnc2c1ncn2[C@@H]1O[C@H](COP(=O)(O)OP(=O)(O)OP(=O)(O)O)[C@@H](O)[C@H]1O` [ATP], the “gel filtration and EM, nucleotide-induced oligomerization” value at NLRP6 [2] is “in the presence of both ATP and LPS, NLRP6 showed additional peak shifts”.

B1: Recombinant full-length human NLRP6 (1–892) (natural protein, UniProt P59044 1-892, looked up)
chain: T1 sequence (P59044 1-892)
notes: NLRP6, human, full length, residues 1-892; Number of copies depends on the condition: monomer in the arginine buffer, dimer with LPS, tetramer, hexamer and longer linear oligomers with LPS and ATP; also called NLRP6 monomer; NLRP6 dimer; not shown: His-tag, N-terminal, cleaved; MBP, N-terminal, cleaved
Take B1: the “stoichiometry N” value in data set [3] is 16 and 18; in data set [4], 2; in data set [5] it was 4 and 6 and 8 and 10.

One may read the stoichiometry N as a count of units in the complex or per binding partner.
